Results published in patent US10321682B2, “Pesticidal aryl pyrrole nitrile compound, preparation method for same, uses thereof, agricultural pesticide, and pest control method” (HENAN GOODDAYS BIOLOGY DEVELOPMENT CO., LTD., priority 2016, dated 2019).
Values after ≈ are worked out from the molar mass of the structure shown. Where two headings read alike, the source gives them in different places.

What was measured:
[1] = Acute percutaneous toxicity in rats; settings: both sexes, rat, in vivo, topical; both female rats and male rats
[2] = Toxicity to Japanese carp; settings: in vivo
[3] = Acute oral toxicity in rats; settings: both sexes, rat, in vivo, both female rats and male rats
rats = settings: cited from earlier work

SMILES	LD50 [1]	LC50 [2]	LD50 [3]	acute oral LD50 (rats; female rats)	acute oral LD50 (rats; male rats)
N#Cc1c(Br)c(C(F)(F)F)n(Cc2cnc(Cl)s2)c1-c1ccc(Cl)cc1 [4-bromo-2-(4-chlorophenyl)-1-(2-chloro-5-thiazolylmethyl)-5-trifluoromethylpyrrole-3-carbonitrile]	> 2000 mg/kg	2.5 µg/mL (≈ 5.2 µM)	> 5000 mg/kg		
CCOCn1c(-c2ccc(Cl)cc2)c(C#N)c(Br)c1C(F)(F)F [Chujin, 4-bromo-2-(4-chlorophenyl)-1-ethoxymethyl-5-trifluoromethylpyrrole-3-carbonitrile]				459 mg/kg	223 mg/kg
